The IC50 is the concentration that inhibits the measured activity by half. Read a high IC50 as weaker potency.

The record followed here is ChEMBL document CHEMBL3774310, “Discovery of antitumor anthra[2,3-b]furan-3-carboxamides: Optimization of synthesis and evaluation of antitumor properties” (Eur J Med Chem, 2016).

One test has as its system HeLa. As to the kind of experiment: Antiproliferative activity against human HeLa cells after 72 hrs by MTT assay. It is filed as functional, cell-based. For orientation: Formazan colour is commonly taken as a measure of viable cells.
A further test is described as follows: cells. As to conditions: Homo sapiens, HCT-116, 72 h.
A further test relates to L1210. As to the kind of experiment: cells. As to conditions: Mus musculus, L1210, 48 h.
Test [1] deals with K562. Description: cells. Conditions: Homo sapiens, K562, 72 h.
Description: Antiproliferative activity against human K562 cells after 72 hrs by MTT assay
The nature of test [2]: Antiproliferative activity against human K562/4 cells after 72 hrs by MTT assay. Conditions: K562/4, 72 h.
In test [3] the target is T1, DNA topoisomerase 1 (Homo sapiens) (UniProt P11387).
T1 sequence (whole entry): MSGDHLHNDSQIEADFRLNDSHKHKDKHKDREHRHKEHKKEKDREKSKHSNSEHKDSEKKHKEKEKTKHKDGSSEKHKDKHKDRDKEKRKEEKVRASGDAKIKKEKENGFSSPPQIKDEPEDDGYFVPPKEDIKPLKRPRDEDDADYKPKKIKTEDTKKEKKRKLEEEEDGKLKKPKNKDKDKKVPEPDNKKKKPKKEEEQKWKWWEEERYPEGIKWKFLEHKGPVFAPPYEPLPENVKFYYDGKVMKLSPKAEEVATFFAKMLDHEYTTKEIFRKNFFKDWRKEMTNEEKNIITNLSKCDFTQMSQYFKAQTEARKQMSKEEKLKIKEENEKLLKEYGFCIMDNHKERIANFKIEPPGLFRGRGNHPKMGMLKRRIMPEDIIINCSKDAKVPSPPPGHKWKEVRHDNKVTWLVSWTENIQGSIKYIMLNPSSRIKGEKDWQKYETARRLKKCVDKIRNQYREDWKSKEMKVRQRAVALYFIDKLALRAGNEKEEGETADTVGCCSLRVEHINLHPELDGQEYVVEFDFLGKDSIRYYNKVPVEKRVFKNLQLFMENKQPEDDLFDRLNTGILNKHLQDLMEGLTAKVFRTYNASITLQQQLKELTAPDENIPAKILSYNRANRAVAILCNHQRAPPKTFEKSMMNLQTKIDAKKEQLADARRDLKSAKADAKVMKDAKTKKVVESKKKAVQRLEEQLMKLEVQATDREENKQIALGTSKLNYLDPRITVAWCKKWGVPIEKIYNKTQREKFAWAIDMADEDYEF
As to the kind of experiment: Poisoning activity at topoisomerase 1 (unknown origin) using 3'-[32P]dGTP labelled 117bp oligonucleotide assessed as induction of DNA cleavage incubated for 20 mins by SDS-PAGE analysis.

For test [4], the system named is K562. As to the kind of experiment: Binding affinity to P-gp in human K562 cells assessed as drug accumulation at 1 uM incubated for 1 to 24 hrs by flow cytometry. It is filed as cell-based. In general terms: Flow cytometry measures light scatter and fluorescence of single cells or particles in a stream.
The subject of another test is Calf thymus DNA. Description: Binding affinity to calf thymus DNA at 5 uM by fluorescence assay. It is filed as nucleic-acid assay. As to conditions: Bos taurus.
A further test concerns K562/4. As to the kind of experiment: Binding affinity to P-gp in human K562/4 cells assessed as drug accumulation at 1 uM incubated for 1 to 24 hrs by flow cytometry. The test is classed as cell-based.
Test [5] addresses T1, DNA topoisomerase 1 (Homo sapiens). As to the kind of experiment: Poisoning activity at topoisomerase 1 (unknown origin) using 3'-[32P]dGTP labelled 117bp oligonucleotide assessed as induction of DNA cleavage at 1 uM incubated for 20 mins by SDS-PAGE analysis.

The structures appear in SMILES notation. Active and inactive are the calls of the source. The rule behind the calls is not given here.

Description for L1210: Antiproliferative activity against mouse L1210 cells after 48 hrs by MTT assay

As for `Cc1oc2c(O)c3c(c(O)c2c1C(=O)N[C@H]1CCNC1)C(=O)c1ccccc1C3=O`, the IC50 in the test with HeLa amounted to 64 µM; in the test “cells” it was 0.25 µM; with L1210, 6.5 µM; in the test with K562 [1], 0.75 µM; in test [2], 0.8 µM.
`O=C1c2ccccc2C(=O)c2c1c(O)c1[nH]cc(CN[C@@H]3CCNC3)c1c2O`: the IC50 in the test “cells” turned out to be 1.6 µM; in the test with L1210, 0.07 µM; in test [2] it was 0.4 µM. In addition, the result in [3] was Active.
Consider `Cc1oc2c(O)c3c(c(O)c2c1C(=O)NC1CCCNC1)C(=O)c1ccccc1C3=O` (centres undefined), for which the IC50 in the test on HeLa came out at 3.4 µM; in “cells”, 1.6 µM; in the test with L1210 it was 3 µM; in the test with K562 [1] it was 0.6 µM; in test [2], 0.35 µM.
Regarding `Cc1oc2c(O)c3c(c(O)c2c1C(=O)N1CCC(N)CC1)C(=O)c1ccccc1C3=O`, the IC50 in the test on HeLa was 9.7 µM; in the test “cells”, 2 µM; with L1210, 13 µM; in the test with K562 [1], 2.1 µM; in test [2], 0.4 µM.
Regarding `Cc1oc2c(O)c3c(c(O)c2c1C(=O)N1CCNCC1)C(=O)c1ccccc1C3=O`, the IC50 in the test with HeLa came to 3.1 µM; in the test “cells”, 2.3 µM; in the test with L1210 it was 4.1 µM; in the test on K562 [1], 1.3 µM; in test [2], 2.8 µM.
`Cc1oc2c(O)c3c(c(O)c2c1C(=O)N1CCCC(N)C1)C(=O)c1ccccc1C3=O` (centres undefined): the 50% inhibitory concentration (IC50) in the test on HeLa came to 1.4 µM; in “cells” it was 1.5 µM; in the test on L1210, 5.6 µM; with K562 [1], 0.85 µM; in [2], 0.7 µM.
In the case of `Cc1oc2c(O)c3c(c(O)c2c1C(=O)N1CCNC(C)C1)C(=O)c1ccccc1C3=O` (centres undefined), the IC50 in the test on HeLa turned out to be 0.9 µM; in the test “cells”, 1.3 µM; in the test on L1210, 3.7 µM; in the test with K562 [1], 0.9 µM; in test [2] it was 3 µM.
Take `Cc1oc2c(O)c3c(c(O)c2c1C(=O)NC1CCNCC1)C(=O)c1ccccc1C3=O`: the IC50 in the test with HeLa was found to be 11 µM; in “cells”, 1.2 µM; with L1210, 5.1 µM; with K562 [1], 2.7 µM; in [2] it was 4 µM.
For the molecule `COc1cccc2c1C(=O)c1c(O)c3c(c(O)c1C2=O)C[C@@](O)(C(=O)CO)C[C@@H]3O[C@H]1C[C@H](N)[C@H](O)[C@H](C)O1`, in the test with K562 [4], the result was inactive. Further, the outcome in the test with Calf thymus DNA and in the test on K562/4 was Active.
As to `Cc1oc2c(O)c3c(c(O)c2c1C(=O)N1CCN(C)CC1)C(=O)c1ccccc1C3=O`, the IC50 amounted to 104 µM with HeLa; 11.5 µM in the test “cells”; 82 µM in the test with L1210; 1.6 µM in the test on K562 [1]; 5.9 µM in test [2].
As to `Cc1oc2c(O)c3c(c(O)c2c1C(=O)N[C@@H]1CCNC1)C(=O)c1ccccc1C3=O`, the IC50 was determined as 9.5 µM with HeLa; 0.3 µM in “cells”; 5.4 µM with L1210; 0.7 µM in the test on K562 [1]; 0.75 µM in [2].
Take `Cc1oc2c(O)c3c(c(O)c2c1C(=O)NC1CN2CCC1CC2)C(=O)c1ccccc1C3=O` (centres undefined): the IC50 in the test with HeLa is 12 µM; in “cells”, 0.9 µM; with L1210, 2.4 µM; in the test on K562 [1] it was 0.6 µM; in test [2] it was 0.65 µM.
On to `CC[C@@]1(O)C(=O)OCc2c1cc1n(c2=O)Cc2cc3ccccc3nc2-1`, for which the outcome in [5] was Active.
For the molecule `COc1cc2c3c(n(CCCNCCO)c(=O)c2cc1OC)-c1cc2c(cc1C3=O)OCO2`, the outcome in test [5] was Active.
In the case of `Cc1oc2c(O)c3c(c(O)c2c1C(=O)N1CCNCC1C)C(=O)c1ccccc1C3=O` (centres undefined), the IC50 in the test on HeLa was 0.7 µM; in the test “cells”, 1.6 µM; in the test on L1210 it was 3.7 µM; with K562 [1], 1.1 µM; in [2] it was 4.8 µM.
